Experimental findings from patent publication US20060008378A1, “Sterilization method” (priority 2004, published 2006) are described below.

In this assay the test system is bacillus used as an index (biological-indicator). The settings on record: 15 g of 35% hydrogen peroxide solution vaporized in 3 minutes, about 0.8 m^3 isolator, peak about 1300 ppm, closed state until 1200 seconds. On the procedure: In this Example, the above-mentioned injector 14 is controlled so that hydrogen peroxide solution is continuously dropped for 3 minutes at a flow rate of 5 g/min, and the dropped hydrogen peroxide solution changes to hydrogen peroxide vapor by flash evaporation in an evaporator 12 in an instant.

SMILES strings stand for the structures.

As to `OO` [hydrogen peroxide vapor, hydrogen peroxide], the “effect of sterilization (culturing the biological-indicator after sterilization)” value is “multiplication of the bacillus used as an index is not recognized”.
